Results published in US10799480B2, “Calixpyrrole-based antitumor compounds” (Giam Pharma International sarl, priority 2016, dated 2020).
“Also recorded” adds a separate entry of the source.

Tests used:
[1] = tested on: pulmonary carcinoma A549; test: MTT test on pulmonary carcinoma A549 cell line; format: cell-based; conditions: for efficacy: A549; for efficacy compared with Endoxan (cyclophosphamide): A549, various concentrations
Source text: (§1) Cellular vitality tests have been performed by using the derivatives of Formulas VII, I and III on due ovary carcinoma lines (SKOV-3 and A2774), two mammary carcinoma lines (MCF-7 and MDAMB-231) and two pulmonary carcinoma lines (H727 and A549). The compounds of Formulas I and III have further been tested in liposomal nanoparticles (NP) in comparison with the pulmonary carcinoma lines H727. The pulmonary carcinoma lines have been used also as target for determining the genotoxicity of the compounds of Formulas I and III, for determining the type of cellular death, through flow cytometry analyses, and for a preliminary analysis in vivo with toxicity determination and pharmacy-kinetics estimation (compound from Formula I).
(§2) The derivatives of Formulas I and III have been used for a series of MTT tests at different concentrations, as such or from a formulation of lipid nanoparticles (NP), using cellular lines deriving from pulmonary carcinoma H727.
(§3) A series of MTT tests have been performed by using the derivatives of Formulas VI, VIII, II and IV (such compounds can be considered as possible fragments of the macrocycles of Formulas V, VII, I and III). […] The results of these MTT tests show how the cytotoxic activity of the compounds of the invention has to be ascribed to the complete structure of the macrocycle having the acetyl function and not to any isolated component thereof.

[2] = tested on: pulmonary carcinoma A549; test: COMET test (DNA fragmentation); format: cell-based; conditions: concentrations from 5 to 50 μM, with respect to standard K
Source text: These latter data are mainly affected by the fact that this technique is not able to detect dead cells, and, in case of compounds of Formulas I and III, such percentage, as previously seen, is relevant.

[3] = tested on: ovary carcinoma SKOV-3; test: MTT test on ovary carcinoma SKOV-3 cell line; format: cell-based; conditions: for EC50: Homo sapiens, SK-OV-3, SKOV-3; for activity: SKOV-3, fragments
Source text: as §1
(§4) The macrocycles of Formulas VII, I and III have been used in MTT tests on cellular lines derive from ovary carcinoma. […] The selectivity shown by the derivative of Formula I compared with a specific cellular line surely needs to be further analyzed as regards its operating mechanism.
as §3

[4] = tested on: ovary carcinoma A2774; test: MTT test on ovary carcinoma A2774 cell line; format: cell-based
Source text: as §1, §4

[5] = tested on: mammary carcinoma MCF-7; test: MTT test on mammary carcinoma MCF-7 cell line; format: cell-based; conditions: Homo sapiens, MCF7
Source text: as §1
(§5) In particular, for both tumor cellular lines, the derivatives of Formulas I and III have EC50 of about 20 μM, while the derivative of Formula VII has a EC50 included between 20 and 30 μM, as shown in the graphs in FIG. 3 and FIG. 4.

[6] = tested on: mammary carcinoma MDAMB-231; test: MTT test on mammary carcinoma MDAMB-231 cell line; format: cell-based; conditions: Homo sapiens, MDA-MB-231
Source text: as §1, §5

[7] = tested on: pulmonary carcinoma H727; test: MTT test on pulmonary carcinoma H727 cell line; format: cell-based; conditions: H727, different concentrations, as such or in lipid nanoparticles (NP)
Source text: as §1, §2

[8] = tested on: pulmonary carcinoma A549; test: Flow cytometry analysis of type of cellular death; format: cell-based
Source text: as §1
The cellular lines A549 treated with the compound of Formula I show 38.80% of apoptosis (9.05% early apoptosis and 29.75% late apoptosis) compared with a 9.30% of necrosis. The same cells treated with the compound of Formula III show 23.45% of total apoptosis (10.25% early apoptosis and 13.20% late apoptosis) against 4.75% of necrosis.

[9] = tested on: DNA of pulmonary carcinoma A549 cells; test: Receptor-DNA adducts through 32P marking; format: cell-based; conditions: A549, butanol enrichment
[10] = mouse, in vivo
Source text: (§6) A preliminary analysis for the toxicity in vivo has been performed by using the compound of Formula I on NJ mice. Due to the particularly hydrophobic nature of such derivative, after various attempts to determine the best solvent mixture, which is non-toxic for the animal, but which contains an adequate concentration of receptor, it has been decided to administer the compound using a mixture containing 10% of DMSO in olive oil. […] After 5 days, the mouse has been sacrificed and, through a HPLC/Mass analysis, the distribution of the compound inside the different compartments has been determined. The different tissues/organs (back sub-skin, spleen, omentum, heart, liver, brain, lung and kidney) have been removed, homogenized and analyzed. A high concentration of the compound of Formula I (determined through the computation of the peak area at m/z 546.31), corresponding to the analyzed compound [M-H]^−), has been observed in the injection site (Area 532.875) and in the spleen (Area 196.233), but the biggest amount has been discovered in the omentum (Area 1.237.999). Lower concentrations have been discovered in the kidney (Area 120.117), in the lung (Area 32.514) and in the heart (Area 29.443). A minimum amount of the compound has been detected in the liver (Area 11.293).

[11] = tested on: NJ mice; conditions: in vivo
Source text: as §6

[12] = target: extrogen receptor GPER (Homo sapiens, UniProt Q99527); conditions: literature; cited from earlier work
extrogen receptor GPER, sequence (Q99527 whole entry): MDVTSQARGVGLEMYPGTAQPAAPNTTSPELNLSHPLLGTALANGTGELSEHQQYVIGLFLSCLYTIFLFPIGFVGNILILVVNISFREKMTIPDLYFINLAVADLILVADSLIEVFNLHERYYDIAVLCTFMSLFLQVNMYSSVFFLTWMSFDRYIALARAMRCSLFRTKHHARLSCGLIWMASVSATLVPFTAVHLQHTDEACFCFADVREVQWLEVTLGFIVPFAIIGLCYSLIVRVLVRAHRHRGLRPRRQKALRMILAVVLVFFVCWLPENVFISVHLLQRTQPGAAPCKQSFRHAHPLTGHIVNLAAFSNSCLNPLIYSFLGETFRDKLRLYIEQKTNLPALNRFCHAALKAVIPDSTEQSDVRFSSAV

[13] = literature; cited from earlier work

CC1(C)c2ccc([nH]2)C(C)(C)c2ccc([nH]2)C(C)(c2ccc(N)cc2)c2ccc([nH]2)C(C)(C)c2ccc1[nH]2 [Formula V]
efficacy [1]: seem not show any efficacy | fragmentation of DNA [2]: a fragmentation is observed

CC1(C)c2ccc([nH]2)C(C)(C)c2ccc([nH]2)C(C)(c2cccc(N)c2)c2ccc([nH]2)C(C)(C)c2ccc1[nH]2 [Formula VII]
EC50 [3]: ~15 µM | activity [4]: has not shown any activity | EC50 [5]: 20 to 30 µM | EC50 [6]: 20 to 30 µM | efficacy [1]: seem not show any efficacy | fragmentation of DNA [2]: a fragmentation is observed

CC(=O)Nc1ccc(C2(C)c3ccc([nH]3)C(C)(C)c3ccc([nH]3)C(C)(C)c3ccc([nH]3)C(C)(C)c3ccc2[nH]3)cc1 [Formula I]
EC50 [3]: 1 to 5 µM | EC50 [4]: ~15 µM | EC50 [5]: ~20 µM | EC50 [6]: ~20 µM | efficacy (cellular vitality) [7]: maximum efficacy already at the lowest doses being used (5 μM) | efficacy compared with Endoxan (cyclophosphamide) [1]: even more efficient than the known chemotherapeutic drug Endoxan | early apoptosis [8]: 9.05% | late apoptosis [8]: 29.75% | main death mechanism [8]: apoptosis is the main death mechanism | necrosis [8]: 9.30% | total apoptosis [8]: 38.80% | fragmentation of DNA [2]: have not given any fragmentation of DNA | adducts with DNA / genotoxicity [9]: adducts with DNA have been identified | peak area in the brain ([10]; NJ, 5 days): 7.735 | peak area in the heart ([10]; NJ, 5 days): 29.443 | peak area in the injection site ([10]; NJ, 5 days): 532.875 | peak area in the kidney ([10]; NJ, 5 days): 120.117 | peak area in the liver ([10]; NJ, 5 days): 11.293 | peak area in the lung ([10]; NJ, 5 days): 32.514 | peak area in the spleen ([10]; NJ, 5 days): 196.233 | passing the hematic-encephalic barrier [10]: actually capable of passing the hematic-encephalic barrier | effects on the mouse ([11]; sc, 5 mg/kg): without discovering particular effects on the mouse | effect on the animal ([11]; mouse, ip): has not show any apparent effect on the animal

CC(c1cccc(N)c1)(c1ccc[nH]1)c1ccc[nH]1 [Formula VIII]
activity [3]: inefficient

CC(=O)Nc1cccc(C2(C)c3ccc([nH]3)C(C)(C)c3ccc([nH]3)C(C)(C)c3ccc([nH]3)C(C)(C)c3ccc2[nH]3)c1 [Formula III]
EC50 [3]: ~15 µM | EC50 [4]: ~15 µM | EC50 [5]: ~20 µM | EC50 [6]: ~20 µM | efficacy (cellular vitality) [7]: maximum efficacy already at the lowest doses being used (5 μM) | efficacy compared with Endoxan (cyclophosphamide) [1]: even more efficient than the known chemotherapeutic drug Endoxan | early apoptosis [8]: 10.25% | late apoptosis [8]: 13.20% | main death mechanism [8]: apoptosis is the main death mechanism | necrosis [8]: 4.75% | total apoptosis [8]: 23.45% | fragmentation of DNA [2]: have not given any fragmentation of DNA | adducts with DNA / genotoxicity [9]: adducts with DNA have been identified; also recorded: higher genotoxicity of the compound of Formula III with respect to the derivative of Formula I

CC(c1ccc(N)cc1)(c1ccc[nH]1)c1ccc[nH]1 [Formula VI]
activity [3]: inefficient

CC(=O)Nc1cccc(C(C)(c2ccc[nH]2)c2ccc[nH]2)c1 [Formula IV]
efficacy [1]: have not shown any activity

CC(=O)Nc1ccc(C(C)(c2ccc[nH]2)c2ccc[nH]2)cc1 [Formula II]
efficacy [1]: have not shown any activity

CC1(C)c2ccc([nH]2)C(C)(C)c2ccc([nH]2)C(C)(C)c2ccc([nH]2)C(C)(C)c2ccc1[nH]2 [meso-octametil-calix[4]pyrrole]
GPER inhibition [12]: selective inhibitor of the extrogen receptor GPER | cytotoxicity [13]: has not appeared as cytotoxic
